The source of these data is US20250122192A1, “5-PYRIMIDINECARBOXAMIDE DERIVATIVES AND METHODS OF USING THE SAME” (Rgenta Therapeutics, Inc., priority 2021, published 2025).

Counter-ions that a name gives are not always drawn.

The subject of one experiment is PMS1. As to the kind of experiment: Mini-gene reporter assay-PMS1. The format is cell-based. The note with it: Homo sapiens, HEK293, PMS1 mini-gene firefly luciferase reporter transiently transfected into HEK293 cells; read-out: PMS1 IC50. In short, it runs like this:
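HEK293 cells transiently transfected with a mini-gene construct: skipped exon with flanking introns and exons fused to firefly luciferase in pcDNA3.1, so exon inclusion raises luciferase signal. Compounds tested in duplicate dilutions, luminescence read after incubation, EC50 fitted by Levenberg-Marquardt.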
For orientation: In a reporter assay the amount or activity of a reporter protein is the signal.
A word on the IC50: it is the concentration that inhibits the measured activity by half. Regarding `CCOc1nc(N2CCC(CNC)C2)ncc1C(=O)Nc1cn2cc(C)nc2c(C)n1` (stereo not shown) [Compound 62], the IC50 is below 0.5 µM.

With `CCOc1nc(N2C[C@@H](C)N[C@@H](C)C2)ncc1C(=O)Nc1cn2cc(C)nc2c(C)n1` [Compound 67], the IC50 was 0.5 to 1 µM. Regarding `CCN(c1ncc(C(=O)Nc2cc(F)c3nn(C)cc3c2)c(OC)n1)C1CCNCC1` [Compound 284, 2-(ethyl(piperidin-4-yl)amino)-N-(7-fluoro-2-methyl-2H-indazol-5-yl)-4-methoxypyrimidine-5-carboxamide formate], the IC50 is below 0.5 µM.

For `CCOc1nc(N2CCCC3NCCCC32)ncc1C(=O)Nc1cc(F)c2nc(C)cn2c1` (stereo not shown) [Compound 122], the IC50 lay within 0.5 to 1 µM.

Turning to `CCOc1nc(N2CCC(NC)C2)ncc1C(=O)Nc1cn2cc(C)nc2c(C)n1` (stereo not shown) [Compound 99], the concentration for half-maximal inhibition (IC50) was below 0.5 µM.

As to `CCOc1nc(N2CCNCC2)ncc1C(=O)Nc1cc(F)c2nn(C)cc2c1` [Compound 26, 4-ethoxy-N-(7-fluoro-2-methyl-2H-indazol-5-yl)-2-(piperazin-1-yl)pyrimidine-5-carboxamide], the concentration for half-maximal inhibition (IC50) fell in the range of 0.5 to 1 µM.

With `CCOc1nc(N2CCNCC2C)ncc1C(=O)Nc1cc(F)c2nc(C)cn2c1` (stereo not shown) [Compound 240], the IC50 was below 0.5 µM. Consider `CCOc1nc(N2CCCC(C3CCCNC3)C2)ncc1C(=O)Nc1cc(F)c2nc(C)cn2c1` (stereo not shown) [Compound 184], for which the half-maximal inhibitory concentration (IC50) was in the range of 0.5 to 1 µM. Still for that read-out and setting: the figure for `CCOc1nc(N2CC3CCCC(C2)N3)ncc1C(=O)Nc1cc(F)c2nc(C)cn2c1` [Compound 185] is 1 to 3 µM; for `CCNC1COC2(C1)CN(c1ncc(C(=O)Nc3cc(F)c4nc(C)cn4c3)c(OCC)n1)C2` (stereo not shown) [Compound 247] it is below 0.5 µM; for `CCOc1nc(N2CC(C)NCC2C)ncc1C(=O)Nc1cn2cc(C)nc2c(C)n1` (stereo not shown) [Compound 32] it is 1 to 3 µM. With `CCOc1nc(N2CCC3(CCNCC3)C2)ncc1C(=O)Nc1cc(F)c2nc(C)cn2c1` [Compound 219], the IC50 was below 0.5 µM. With `CCOc1nc(N(C)[C@@H]2C[C@H]3CC[C@@H](C2)N3)ncc1C(=O)Nc1cn2cc(C)nc2c(C)n1` [Compound 56], the IC50 lay within 0.5 to 1 µM. On to `CCOc1nc(N2CC3C4CCC(NC4)C3C2)ncc1C(=O)Nc1cc(F)c2nc(C)cn2c1` (stereo not shown) [Compound 125], for which the IC50 lay within 0.5 to 1 µM. Regarding `CCOc1nc(N2CCC3(CCCN3)CC2)ncc1C(=O)Nc1cn2cc(C)nc2c(C)n1` [Compound 54], the IC50 is below 0.5 µM. `CCOc1nc(N2CCC3CCCC(C2)N3)ncc1C(=O)Nc1cc(F)c2nc(C)cn2c1` (stereo not shown) [Compound 126]: the IC50 was in the range of 1 to 3 µM. In the case of `CCOc1nc(N2CC(NC)C2)ncc1C(=O)Nc1cn2cc(C)nc2c(C)n1` [Compound 43], the IC50 was above 3 µM.

As to `CCOc1nc(N(C)C2CCNC2)ncc1C(=O)Nc1cn2cc(C)nc2c(C)n1` (stereo not shown) [Compound 81], the IC50 was 1 to 3 µM.

In the case of `CCOc1nc(N2CC[C@@H](CNC)C2)ncc1C(=O)Nc1cc(F)c2nc(C)cn2c1` [Compound 304, (S)-4-ethoxy-N-(8-fluoro-2-methylimidazo[1,2-a]pyridin-6-yl)-2-(3-((methylamino)methyl)pyrrolidin-1-yl)pyrimidine-5-carboxamide 4-methylbenzenesulfonate], the IC50 is 0.5 to 1 µM. Take `CCOc1nc(N2C3CCCC2CNC3)ncc1C(=O)Nc1cc(F)c2nc(C)cn2c1` [Compound 130]: the IC50 lay within 1 to 3 µM. For the compound `CCOc1nc(N2CCNC(C)C2)ncc1C(=O)Nc1cn2cc(C)nc2c(C)n1` (stereo not shown) [Compound 102], the IC50 lay in the range of 0.5 to 1 µM. The same measure, in the same setting: the result for `CCOc1nc(N2CC[C@@H](CN(C)C)C2)ncc1C(=O)Nc1cc(F)c2nc(C)cn2c1` [Compound 305, (S)-2-(3-((dimethylamino)methyl)pyrrolidin-1-yl)-4-ethoxy-N-(8-fluoro-2-methylimidazo[1,2-a]pyridin-6-yl)pyrimidine-5-carboxamide formate] reads 0.5 to 1 µM.

Regarding `CCOc1nc(N(CC)C2CCNCC2)ncc1C(=O)Nc1ccc2nn(C)cc2c1` [Compound 272, 4-ethoxy-2-(ethyl(piperidin-4-yl)amino)-N-(2-methyl-2H-indazol-5-yl)pyrimidine-5-carboxamide formate], the IC50 is 1 to 3 µM.

As to `CCOc1nc(N2CCNCC2)ncc1C(=O)Nc1cc(F)c2nc(C)oc2c1` [Compound 12, 4-ethoxy-N-(4-fluoro-2-methyl-1,3-benzoxazol-6-yl)-2-(piperazin-1-yl)pyrimidine-5-carboxamide], the IC50 is 1 to 3 µM. Take `CCOc1nc(N2CCC3(CCN3)C2)ncc1C(=O)Nc1cn2cc(C)nc2c(C)n1` (stereo not shown) [Compound 82]: the concentration for half-maximal inhibition (IC50) is 1 to 3 µM. Turning to `CCOc1nc(N2CCN[C@H]3CC[C@H]32)ncc1C(=O)Nc1cn2cc(C)nc2c(C)n1` (racemic) [Compound 101], the IC50 was in the range of 0.5 to 1 µM. Regarding `CCOc1nc(N2CC[C@@H]3NCCC[C@@H]3C2)ncc1C(=O)Nc1cn2cc(C)nc2c(C)n1` (racemic) [Compound 31], the IC50 was above 3 µM.

As for `CCOc1nc(N2CCCC(C3CNC3)C2)ncc1C(=O)Nc1cc(F)c2nc(C)cn2c1` (stereo not shown) [Compound 159], the 50% inhibitory concentration (IC50) is above 3 µM. The same measure, in the same setting: the result for `CCOc1nc(N2CCN(CC)CC2)ncc1C(=O)Nc1cc(F)c2nn(C)cc2c1` [Compound 252, 4-ethoxy-2-(4-ethylpiperazin-1-yl)-N-(7-fluoro-2-methyl-2H-indazol-5-yl)pyrimidine-5-carboxamide hydrochloride] reads above 3 µM; that for `CCOc1nc(N(C)C2CCNCC2)ncc1C(=O)Nc1cc(F)c2nc(C)cn2c1` [Compound 241], below 0.5 µM; that for `CCOc1nc(N2CCO[C@H]3CNC[C@H]32)ncc1C(=O)Nc1cc(F)c2nc(C)cn2c1` (racemic) [Compound 177], 1 to 3 µM.

For `CCOc1nc(N2CCNC3CC32)ncc1C(=O)Nc1cc(F)c2nc(C)cn2c1` (stereo not shown) [Compound 192], the IC50 lay within 0.5 to 1 µM. On to `CCOc1nc(N2CCOC3(CCCNC3)C2)ncc1C(=O)Nc1cc(F)c2nc(C)cn2c1` (stereo not shown) [Compound 145], for which the IC50 was above 3 µM. Same read-out and setting: the result for `CCOc1nc(N2CCC3(CCNC3)CC2)ncc1C(=O)Nc1cc(F)c2nc(C)cn2c1` [Compound 225] reads below 0.5 µM; that for `CCOc1nc(N2CC3=C(CNC3)C2)ncc1C(=O)Nc1cc(F)c2nc(C)cn2c1` [Compound 114], below 0.5 µM. For `CCOc1nc(N(CC)C2CCCNCC2)ncc1C(=O)Nc1cc(F)c2nc(C)cn2c1` (stereo not shown) [Compound 168], the IC50 was below 0.5 µM.

With `CCOc1nc(N2CC[C@H](NC)C2)ncc1C(=O)Nc1cc(F)c2nn(C)cc2c1` [Compound 277, (S)-4-ethoxy-N-(7-fluoro-2-methyl-2H-indazol-5-yl)-2-(3-(methylamino)pyrrolidin-1-yl)pyrimidine-5-carboxamide 4-methylbenzenesulfinate], the concentration for half-maximal inhibition (IC50) is below 0.5 µM. On the same count and under the same terms, the figure for `CCOc1nc(N2CCC(NCC3CC3)CC2)ncc1C(=O)Nc1cn2cc(C)nc2c(C)n1` [Compound 74] is above 3 µM; for `CCOc1nc(N2CCNC(CF)C2)ncc1C(=O)Nc1cc(F)c2nc(C)cn2c1` (stereo not shown) [Compound 111] it is above 3 µM; for `CCOc1nc(N2CCCC(C3CCCN3)C2)ncc1C(=O)Nc1cc(F)c2nc(C)cn2c1` (stereo not shown) [Compound 180] it is below 0.5 µM. Regarding `CCOc1nc(N2CC[C@H]3CCN[C@H]3C2)ncc1C(=O)Nc1cc(F)c2nc(C)cn2c1` (racemic) [Compound 198], the 50% inhibitory concentration (IC50) is 1 to 3 µM. Take `CCOc1nc(N(C)CC2CCNC2)ncc1C(=O)Nc1cc(F)c2nc(C)cn2c1` (stereo not shown) [Compound 210]: the IC50 fell in the range of 0.5 to 1 µM. For the compound `CCOc1nc(N2CCNCC2)ncc1C(=O)Nc1cn2cc(C)nc2cn1` [Compound 9, 4-ethoxy-N-{2-methylimidazo[1,2-a]pyrazin-6-yl}-2-(piperazin-1-yl)pyrimidine-5-carboxamide], the IC50 lay in the range of 1 to 3 µM.

On to `CCOc1nc(N2CCCC3CNCCC32)ncc1C(=O)Nc1cn2cc(C)nc2c(C)n1` (stereo not shown) [Compound 49], for which the IC50 is below 0.5 µM.

Turning to `CCOc1nc(N2CC[C@@H](NC)C2)ncc1C(=O)Nc1ccc2nn(C)cc2c1` [Compound 286, (R)-4-ethoxy-N-(2-methyl-2H-indazol-5-yl)-2-(3-(methylamino)pyrrolidin-1-yl)pyrimidine-5-carboxamide formate], the IC50 fell in the range of 0.5 to 1 µM.

Staying with this experiment, now noted: Homo sapiens, HEK293, read-out: PMS1% Effect at 5 μM.
Turning to `CCOc1nc(N2CCNCC2)ncc1C(=O)Nc1cn2cc(C)nc2cc1F` [Compound 308, 4-ethoxy-N-(7-fluoro-2-methylimidazo[1,2-a]pyridin-6-yl)-2-(piperazin-1-yl)pyrimidine-5-carboxamide formate], the activation at 5 µM was above 75%.

The experiment is the same for the next values; noted with them: Homo sapiens; at 5 μM; PMS1 mini-gene firefly luciferase reporter in HEK293 cells; read-out: PMS1% Effect at 5 μM.
Turning to `CCOc1nc(N2CCNCC(F)(F)C2)ncc1C(=O)Nc1cc(F)c2nc(C)cn2c1` [Compound 140], the activation at 5 µM is below 50%.

In the case of `CCOc1nc(N2CCO[C@H]3CNC[C@H]32)ncc1C(=O)Nc1cn2cc(C)nc2c(C)n1` (racemic) [Compound 93], the activation at 5 µM is below 50%.

For `CCOc1nc(N2CCN[C@@H](C)C2)ncc1C(=O)Nc1cn2cc(C)nc2c(C)n1` [Compound 19, N-{2,8-dimethylimidazo[1,2-a]pyrazin-6-yl}-4-ethoxy-2-[(3S)-3-methylpiperazin-1-yl]pyrimidine-5-carboxamide], the activation at 5 µM is 50 to 75%. Take `CCOc1nc(C2CCNC2)ncc1C(=O)Nc1cc(F)c2nc(C)cn2c1` (stereo not shown) [Compound 316, 4-ethoxy-N-8-fluoro-2-methylimidazo[1,2-a]pyridin-6-yl-2-(pyrrolidin-3-yl)-pyrimidine-5-carboxamide]: the activation at 5 µM was in the range of 50 to 75%. With `CCOc1nc(N2CC(CO)C3(CCNCC3)C2)ncc1C(=O)Nc1cn2cc(C)nc2c(C)n1` (stereo not shown) [Compound 91], the activation at 5 µM was below 50%.

The experiment is the same for the next values; noted with them: PMS1 mini-gene firefly luciferase reporter transiently transfected into HEK293 cells; hydrochloride; read-out: PMS1 IC50.
As for `CCOc1nc(N2C[C@@H](C)N[C@@H](C)C2)ncc1C(=O)Nc1cc(F)c2nc(C)cn2c1` [Compound 4, 2-[(3R,5S)-3,5-dimethylpiperazin-1-yl]-4-ethoxy-N-{8-fluoro-2-methylimidazo[1,2-a]pyridin-6-yl}pyrimidine-5-carboxamide hydrochloride], the IC50 lay within 0.5 to 1 µM.
